# In ChEMBL document CHEMBL1255530, “3D-QSAR CoMFA study of benzoxazepine derivatives as mGluR5 positive allosteric modulators” (Bioorg Med Chem Lett, 2010):
# Target: Metabotropic glutamate receptor 5 (Rattus norvegicus, UniProt P31424)
# Assay: Positive allosteric modulation of rat mGluR5 expressed in HEK293 cells
# Metabotropic glutamate receptor 5, sequence (P31424 whole entry): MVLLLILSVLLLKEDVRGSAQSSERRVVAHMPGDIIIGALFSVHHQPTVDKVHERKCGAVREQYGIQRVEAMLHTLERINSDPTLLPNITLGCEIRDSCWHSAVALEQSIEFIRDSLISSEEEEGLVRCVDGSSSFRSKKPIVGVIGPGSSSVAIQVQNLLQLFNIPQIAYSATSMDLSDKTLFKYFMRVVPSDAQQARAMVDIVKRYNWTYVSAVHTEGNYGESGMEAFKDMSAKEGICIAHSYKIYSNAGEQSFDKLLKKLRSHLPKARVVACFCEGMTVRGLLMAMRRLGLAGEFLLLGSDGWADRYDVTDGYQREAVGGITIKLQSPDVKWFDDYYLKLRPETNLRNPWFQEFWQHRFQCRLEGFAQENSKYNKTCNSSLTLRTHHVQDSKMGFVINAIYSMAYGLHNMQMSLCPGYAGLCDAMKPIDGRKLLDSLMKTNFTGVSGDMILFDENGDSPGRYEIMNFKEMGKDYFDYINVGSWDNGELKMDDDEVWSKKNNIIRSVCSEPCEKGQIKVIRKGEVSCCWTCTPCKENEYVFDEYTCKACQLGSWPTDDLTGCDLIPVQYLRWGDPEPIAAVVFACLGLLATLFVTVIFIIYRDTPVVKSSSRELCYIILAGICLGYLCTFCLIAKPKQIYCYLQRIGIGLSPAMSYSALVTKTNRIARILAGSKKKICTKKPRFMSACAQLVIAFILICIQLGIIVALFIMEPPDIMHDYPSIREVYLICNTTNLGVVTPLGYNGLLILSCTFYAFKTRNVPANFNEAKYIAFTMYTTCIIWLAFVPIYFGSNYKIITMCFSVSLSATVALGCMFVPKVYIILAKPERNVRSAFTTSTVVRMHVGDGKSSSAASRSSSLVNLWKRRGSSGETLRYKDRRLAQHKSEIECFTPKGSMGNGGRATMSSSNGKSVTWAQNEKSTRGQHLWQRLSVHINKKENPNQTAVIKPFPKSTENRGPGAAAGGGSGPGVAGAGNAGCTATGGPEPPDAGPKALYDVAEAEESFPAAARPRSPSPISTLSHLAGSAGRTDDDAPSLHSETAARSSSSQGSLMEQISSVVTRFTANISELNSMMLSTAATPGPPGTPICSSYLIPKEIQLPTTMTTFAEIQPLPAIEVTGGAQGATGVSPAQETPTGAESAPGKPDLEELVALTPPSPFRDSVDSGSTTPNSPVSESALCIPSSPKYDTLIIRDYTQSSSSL
row,SMILES,EC50
1,CSc1nnc2c(n1)O[C@@H](c1cn(C)c3ccccc13)N(C(C)=O)c1ccccc1-2,1820 nM
2,CSc1nnc2c(n1)O[C@@H](c1ccc(OC(C)=O)c(Br)c1)N(C(C)=O)c1ccccc1-2,3800 nM
3,CCC(=O)N1c2ccccc2-c2nnc(SC)nc2O[C@H]1c1ccccc1Br,1350 nM
4,CCOc1cc([C@@H]2Oc3nc(SC)nnc3-c3ccccc3N2C(=O)CC)cc(Br)c1OC,7080 nM
5,CSc1nnc2c(n1)O[C@@H](c1cccc(C)n1)N(C(C)=O)c1ccccc1-2,7590 nM
6,CSc1nnc2c(n1)O[C@@H](c1ccccn1)N(C(C)=O)c1ccccc1-2,5250 nM
7,C=CCOc1ccc([C@@H]2Oc3nc(SC)nnc3-c3ccccc3N2C(C)=O)cc1,2570 nM
8,CSc1nnc2c(n1)O[C@@H](c1ccc(C)cc1)N(C(C)=O)c1ccccc1-2,2750 nM
9,CCC(=O)N1c2ccccc2-c2nnc(SC)nc2O[C@H]1c1ccc(OC)c(C)c1,3630 nM
10,CSc1nnc2c(n1)O[C@@H](c1cccc(Oc3ccccc3)c1)N(C(C)=O)c1ccccc1-2,2950 nM
11,CSc1nnc2c(n1)O[C@@H](c1ccccc1C)N(C(C)=O)c1ccccc1-2,3020 nM
12,CCC(=O)N1c2ccccc2-c2nnc(SC)nc2O[C@H]1c1ccccc1F,1780 nM
13,CCCC(=O)N1c2ccccc2-c2nnc(SC)nc2O[C@H]1c1ccc(C(=O)OC)cc1,2240 nM
14,C=CCSc1nnc2c(n1)O[C@@H](c1cc(Br)c(OC(C)=O)c(OC)c1)N(C(C)=O)c1ccccc1-2,3310 nM
15,CCC(=O)N1c2ccccc2-c2nnc(SC)nc2O[C@H]1c1ccco1,4270 nM
16,C=CCSc1nnc2c(n1)O[C@@H](/C=C/c1ccccc1)N(C(C)=O)c1ccccc1-2,1700 nM
17,CCC(=O)N1c2ccccc2-c2nnc(SC)nc2O[C@H]1c1ccc(I)o1,1410 nM

row,SMILES,EC50
1,CCC(=O)N1c2ccccc2-c2nnc(SC)nc2O[C@H]1c1ccccc1C,2000 nM
2,C=CCSc1nnc2c(n1)O[C@@H](c1ccccc1OCCC)N(C(C)=O)c1ccccc1-2,1320 nM
3,C=CCSc1nnc2c(n1)O[C@@H](c1ccc(N(C)C)cc1)N(C(C)=O)c1ccccc1-2,3160 nM
4,CCC(=O)N1c2ccccc2-c2nnc(SC)nc2O[C@H]1c1ccc(OC)cc1,2190 nM
5,CCSc1nnc2c(n1)O[C@H](c1cc3c(cc1Br)OCO3)N(C(C)=O)c1ccccc1-2,4270 nM
6,CCC(=O)Oc1ccc(Cl)cc1[C@@H]1Oc2nc(SC)nnc2-c2ccccc2N1C(=O)CC,3240 nM
7,CCSc1nnc2c(n1)O[C@H](c1ccccc1C)N(C(C)=O)c1ccccc1-2,2040 nM
8,CCSc1nnc2c(n1)O[C@H](c1cccnc1)N(C(C)=O)c1ccccc1-2,1820 nM
9,CSc1nnc2c(n1)O[C@@H](c1cccc(F)c1)N(C(C)=O)c1ccccc1-2,1260 nM
10,CSc1nnc2c(n1)O[C@@H](c1c(C)[nH]c3ccccc13)N(C(C)=O)c1ccccc1-2,4070 nM
11,CCCC(=O)N1c2ccccc2-c2nnc(SC)nc2O[C@H]1c1cccc(C)n1,1950 nM
12,CCCSc1nnc2c(n1)O[C@H](c1ccccc1OC(C)=O)N(C(C)=O)c1ccccc1-2,1320 nM
13,CCSc1nnc2c(n1)O[C@@H](c1cc(OC(C)=O)ccc1Cl)N(C(C)=O)c1ccccc1-2,3800 nM
14,CSc1nnc2c(n1)O[C@@H](c1cccn1C)N(C(C)=O)c1ccccc1-2,9550 nM
15,CCCC(=O)N1c2ccccc2-c2nnc(SC)nc2O[C@H]1c1ccc(OC)cc1OC,2090 nM
16,CCOc1cc([C@@H]2Oc3nc(SC)nnc3-c3ccccc3N2C(=O)CC)ccc1OC,1380 nM

# Now from value to molecule:
row,EC50,SMILES
1,1200 nM,CCC(=O)N1c2ccccc2-c2nnc(SC)nc2O[C@H]1c1cc(Cl)c(OC)c(OC)c1
2,513 nM,CCCCSc1nnc2c(n1)O[C@@H](c1cccc(F)c1)N(C(C)=O)c1ccccc1-2
3,692 nM,CCCCSc1nnc2c(n1)O[C@@H](c1cccn1C)N(C(C)=O)c1ccccc1-2
4,1230 nM,CCC(=O)N1c2ccccc2-c2nnc(SC)nc2O[C@H]1c1cc(Br)c(OC)c(OC)c1
5,107 nM,CCSc1nnc2c(n1)O[C@@H](c1cccc(OC)c1)N(C(=O)CC)c1ccccc1-2
6,1020 nM,CSc1nnc2c(n1)O[C@@H](c1ccsc1)N(C(C)=O)c1ccccc1-2
7,891 nM,COc1ccc(OC)c([C@@H]2Oc3nc(SC)nnc3-c3ccccc3N2C(C)=O)c1
8,1260 nM,C=CCSc1nnc2c(n1)O[C@@H](c1ccc(OC(C)=O)c(OCC)c1)N(C(C)=O)c1ccccc1-2
9,1200 nM,CCCSc1nnc2c(n1)O[C@@H](c1cc(OC)c(OC)cc1Cl)N(C(C)=O)c1ccccc1-2
10,347 nM,CCCSc1nnc2c(n1)O[C@@H](c1cccn1C)N(C(C)=O)c1ccccc1-2
11,891 nM,C=CCSc1nnc2c(n1)O[C@@H](c1cc(C)ccc1OC(C)=O)N(C(C)=O)c1ccccc1-2
12,832 nM,CCC(=O)N1c2ccccc2-c2nnc(SC)nc2O[C@H]1c1cc(OC)c(OC)c(OC)c1
13,479 nM,CCCCSc1nnc2c(n1)O[C@@H](c1ccsc1)N(C(C)=O)c1ccccc1-2
14,617 nM,CCCCSc1nnc2c(n1)O[C@@H](c1cccc(C)n1)N(C(C)=O)c1ccccc1-2
15,692 nM,C=CCSc1nnc2c(n1)O[C@@H](c1ccc(OCC)c(OC)c1)N(C(C)=O)c1ccccc1-2
16,398 nM,CCSc1nnc2c(n1)O[C@@H](c1ccccc1F)N(C(C)=O)c1ccccc1-2
17,229 nM,C=CCSc1nnc2c(n1)O[C@@H](/C=C/c1cccs1)N(C(C)=O)c1ccccc1-2
18,1120 nM,C=CCSc1nnc2c(n1)O[C@@H](c1ccccc1F)N(C(C)=O)c1ccccc1-2
19,871 nM,CCC(=O)N1c2ccccc2-c2nnc(SC)nc2O[C@H]1c1ccc(Cl)cc1

row,EC50,SMILES
1,316 nM,C=CCSc1nnc2c(n1)O[C@@H](c1cccs1)N(C(C)=O)c1ccccc1-2
2,1020 nM,C=CCSc1nnc2c(n1)O[C@@H](c1ccco1)N(C(C)=O)c1ccccc1-2
3,1100 nM,CCC(=O)N1c2ccccc2-c2nnc(SC)nc2O[C@H]1c1ccc(OC)c(Br)c1
4,95.5 nM,C=CCSc1nnc2c(n1)O[C@@H](c1ccccc1)N(C(C)=O)c1ccccc1-2
5,562 nM,C=CCSc1nnc2c(n1)O[C@@H](c1ccccn1)N(C(C)=O)c1ccccc1-2
6,759 nM,CCC(=O)N1c2ccccc2-c2nnc(SC)nc2O[C@H]1c1cc(Cl)ccc1OC
7,871 nM,CSc1nnc2c(n1)O[C@H](c1cn(C(C)=O)c3ccccc13)N(C(C)=O)c1ccccc1-2
8,1200 nM,C=CCOc1ccc([C@@H]2Oc3nc(SCC=C)nnc3-c3ccccc3N2C(C)=O)cc1
9,562 nM,CCC(=O)N1c2ccccc2-c2nnc(SC)nc2O[C@H]1c1ccccc1OC
10,1000 nM,CCSc1nnc2c(n1)O[C@H](c1ccc(OC(C)=O)c(OC)c1)N(C(C)=O)c1ccccc1-2
11,490 nM,CCCSc1nnc2c(n1)O[C@@H](c1ccncc1)N(C(C)=O)c1ccccc1-2
12,158 nM,CCCSc1nnc2c(n1)O[C@@H](c1ccccc1OC)N(C(C)=O)c1ccccc1-2
13,191 nM,CCC(=O)N1c2ccccc2-c2nnc(SC)nc2O[C@H]1c1cc(OC)ccc1OC
14,398 nM,CCOc1ccc(Br)cc1[C@@H]1Oc2nc(SC)nnc2-c2ccccc2N1C(=O)CC
15,1200 nM,CCSc1nnc2c(n1)O[C@@H](c1ccc(C)s1)N(C(C)=O)c1ccccc1-2
16,1120 nM,CCCOc1ccccc1[C@@H]1Oc2nc(SCC)nnc2-c2ccccc2N1C(C)=O
17,871 nM,CCSc1nnc2c(n1)O[C@@H](c1ccco1)N(C(C)=O)c1ccccc1-2
18,1120 nM,CCC(=O)N1c2ccccc2-c2nnc(SC)nc2O[C@H]1c1ccc(Br)s1
